Like-named read-outs stand apart in the source and are kept apart here. Marks after values point to notes of the source that are not given here.

These results are taken from article PMC7053292 (Research in Pharmaceutical Sciences, 2020).

For assay [1], the target named is T1, α-amylase from Aspergillus oryzae (Aspergillus oryzae, UniProt P0C1B3). Nature of the assay: Kinetic study on α-amylase. Particulars: for α-Amylase inhibition type: Lineweaver-Burk and Dixon plots; for Ki: substrate amylose. The class given is biochemical.
The target of assay [2] is T2, α-glucosidase from Saccharomyces cerevisiae (Saccharomyces cerevisiae, UniProt P53341). Nature of the assay: Kinetic study on α-glucosidase. The class given is biochemical. Particulars: for α-Glucosidase inhibition type: Lineweaver-Burk and Dixon plots; for Ki: α-Glucosidase Ki, from slope (Km/Vmax) vs [I], substrate 4-pNPG, free enzyme.
The target of assay [3] is T1, α-amylase from Aspergillus oryzae. Kind of assay: biochemical. Particulars: for inhibition at 20 µM: read-out: Inhibition at 0.02 mM (%) α-Amylase; for inhibition percentage lower than standard inhibitor acarbose on α-amylase: ratio of inhibition percentages, acarbose vs sample.
The target of assay [4] is T2, α-glucosidase from Saccharomyces cerevisiae. Kind of assay: α-Glucosidase assay. Type of assay: biochemical. Particulars: for inhibition percentage lower than standard inhibitor acarbose on α-glucosidase: ratio of inhibition percentages, acarbose vs sample; for inhibition at 20 µM: read-out: Inhibition at 0.02 mM (%) α-Glucosidase.
The next assay is described as follows: DPPH assay. Particulars: mean ± SD, n = 3; for Inhibitory activity at 0.5 mM (%): DPPH; for IC50: read-out: IC50 (DPPH free radical scavenging).
Where [5] appears, read: α-Amylase Ki, from slope (Km/Vmax) vs [I], free enzyme.
Where [6] appears, read: α-Amylase Ki´, from 1/Vmax vs [I], enzyme-substrate complex.
Setting [7] is: IC50 values (mM) α-Amylase, mean ± SD, n = 3.

T2 sequence (P53341 whole entry): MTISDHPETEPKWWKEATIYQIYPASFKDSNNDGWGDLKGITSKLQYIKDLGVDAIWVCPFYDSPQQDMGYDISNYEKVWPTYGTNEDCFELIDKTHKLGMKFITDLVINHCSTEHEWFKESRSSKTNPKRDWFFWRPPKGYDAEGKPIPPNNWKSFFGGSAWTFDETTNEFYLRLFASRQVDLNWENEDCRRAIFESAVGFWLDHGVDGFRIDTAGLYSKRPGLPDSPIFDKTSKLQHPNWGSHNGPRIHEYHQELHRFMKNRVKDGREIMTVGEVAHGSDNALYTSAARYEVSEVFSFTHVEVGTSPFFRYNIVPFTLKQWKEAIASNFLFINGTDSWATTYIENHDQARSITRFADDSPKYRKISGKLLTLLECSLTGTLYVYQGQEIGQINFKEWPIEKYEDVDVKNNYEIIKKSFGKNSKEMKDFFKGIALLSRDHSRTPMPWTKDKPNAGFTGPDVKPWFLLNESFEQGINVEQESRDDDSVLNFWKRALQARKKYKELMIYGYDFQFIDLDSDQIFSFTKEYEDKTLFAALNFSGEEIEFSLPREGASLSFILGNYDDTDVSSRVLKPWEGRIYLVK

In the case of `C[C@H]1O[C@H](O[C@H]2[C@H](O)[C@@H](O)[C@@H](O[C@H]3[C@H](O)[C@@H](O)C(O)O[C@@H]3CO)O[C@@H]2CO)[C@H](O)[C@@H](O)[C@@H]1N[C@H]1C=C(CO)[C@@H](O)[C@H](O)[C@H]1O` (stereo partly shown) [Acarbose, acarbose, reference compound], the α-Amylase inhibition type result in assay [1] is given as “Mixed type”. In assay [2], the α-Glucosidase inhibition type result is given as “Mixed type”. Further, the inhibition – broadly, the relative decrease from the control value, in per cent – at 20 µM in assay [3] worked out at 61.7 ± 1.14%.
In the case of `CC(=O)C1CCCN1Cc1ccccc1` (stereo not shown) [4a, N-(benzyl)-2-acetylpyrrolidine], the α-Amylase inhibition type entry in assay [1] is given as “Mixed type”. The inhibition constant (Ki) (as a rule, the equilibrium dissociation constant of an inhibitor or competing ligand from its target) in assay [1] (setting [5]) is 0.23 mM; in assay [1] (setting [6]) it was 2.35 mM; in assay [2] it was 0.29 mM. In addition, the IC50 (usually the concentration that inhibits the measured activity by half) was found to be 0.52 ± 0.02 mM in assay [4], 1.01 ± 0.01 mM in the assay “DPPH assay”, 3.21 ± 0.65 mM in assay [3] and 2.72 ± 0.09 mM in assay [3] (setting [7]). Moreover, the “inhibition percentage lower than standard inhibitor acarbose on α-glucosidase” value in assay [4] is recorded as “approximately 2.21 times”. Moreover, the figures for the inhibition at 20 µM in assay [4] and in assay [3] were 40.3 ± 0.8% and 28.9 ± 0.57%, respectively. Also, the “Inhibitory activity at 0.5 mM (%)” value in “DPPH assay” is 41.62 ± 0.64^a %. For the same molecule, the α-Glucosidase inhibition type entry in assay [2] was “Mixed type”. For the same molecule, the “less potential on α-amylase than 4a on α-glucosidase (IC50 ratio)” value in assay [3] (IC50 on α-amylase vs IC50 of 4a on α-glucosidase) is about 6.2 times. For the same molecule, the “less potential on α-amylase than 4b on α-amylase (IC50 ratio)” value in assay [3] (IC50 on α-amylase vs IC50 of 4b on α-amylase) is reported as “approximately 1.20 times”. In assay [3] (IC50 on α-amylase vs IC50 of 4b on α-glucosidase), the “less potential on α-amylase than 4b on α-glucosidase (IC50 ratio)” value was “approximately 2.0 times”. Besides, the “inhibition percentage lower than standard inhibitor acarbose on α-amylase” value in assay [3] was about 2.13 times.
With `CC(=O)C1CCCN1S(=O)(=O)c1ccc(C)cc1` (stereo not shown) [4b, N-(tosyl)-2-acetylpyrrolidine], in assay [1], the α-Amylase inhibition type result was “Mixed type”. In assay [1] (setting [5]), this molecule displayed a Ki of 0.27 mM. The same molecule had an inhibition constant (Ki) in assay [1] (setting [6]) of 0.71 mM. Besides, in assay [4], the half-maximal inhibitory concentration (IC50) was found to be 1.64 ± 0.08 mM, the “inhibition percentage lower than standard inhibitor acarbose on α-glucosidase” value was “approximately 2.21 times” and the inhibition at 20 µM came out at 32.31 ± 0.29%. Further, in “DPPH assay”, the “Inhibitory activity at 0.5 mM (%)” value is reported as 34.28 ± 0.73^b % and the IC50 was found to be 1.82 ± 0.048 mM. For the same molecule, in assay [2], the α-Glucosidase inhibition type entry was “Mixed type” and the affinity corresponds to a Ki of 0.23 mM. In assay [3], the IC50 is 2.72 ± 0.09 mM, the “inhibition percentage lower than standard inhibitor acarbose on α-amylase” value is on record as about 2.13 times and the inhibition at 20 µM was found to be 30.1 ± 0.78%. This molecule returned a half-maximal inhibitory concentration (IC50) in assay [3] (setting [7]) of 3.21 ± 0.65 mM.
